Assay [1] is described as follows: Inhibition of di-phosphorylated human Insulin receptor (978 to 1283 residues) C981S mutant kinase domain expressed in baculovirus infected Sf9 cells incubated for 1 hr by [gamma-33P]ATP assay.
The target in assay [2] is Mitogen-activated protein kinase kinase kinase 7 (Homo sapiens) (UniProt O43318). The experiment in a line: Inhibition of human TAK1 at 18.6 nM by HotSpot assay relative to control.
For assay [3], the target named is MAP kinase-interacting serine/threonine-protein kinase 2 (Homo sapiens) (UniProt Q9HBH9). The assay is described as follows: Inhibition of human MNK2 at 18.6 nM by HotSpot assay relative to control.
Chain of MAP kinase-interacting serine/threonine-protein kinase 2 (Homo sapiens) (Q9HBH9 whole entry, looked up): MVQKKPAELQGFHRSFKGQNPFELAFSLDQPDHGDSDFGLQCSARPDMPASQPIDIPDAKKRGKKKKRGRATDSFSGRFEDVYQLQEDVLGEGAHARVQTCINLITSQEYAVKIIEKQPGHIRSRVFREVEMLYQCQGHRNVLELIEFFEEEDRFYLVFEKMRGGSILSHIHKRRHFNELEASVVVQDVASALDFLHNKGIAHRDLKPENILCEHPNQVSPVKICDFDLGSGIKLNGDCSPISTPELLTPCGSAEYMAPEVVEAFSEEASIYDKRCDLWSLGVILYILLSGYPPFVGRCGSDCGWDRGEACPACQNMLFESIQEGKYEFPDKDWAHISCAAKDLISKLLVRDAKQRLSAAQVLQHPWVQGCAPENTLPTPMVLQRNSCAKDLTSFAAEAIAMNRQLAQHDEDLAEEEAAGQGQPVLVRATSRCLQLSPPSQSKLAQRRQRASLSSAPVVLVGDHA
Assay [4] addresses Focal adhesion kinase 1 (Homo sapiens) (UniProt Q05397). The experiment in a line: Inhibition of human FAK at 18.6 nM by HotSpot assay relative to control.
The target of assay [5] is Non-receptor tyrosine-protein kinase TYK2 (Homo sapiens) (UniProt P29597). The assay is described as follows: Inhibition of human TYK2 at 18.6 nM by HotSpot assay relative to control.
Chain of Non-receptor tyrosine-protein kinase TYK2 (Homo sapiens) (P29597 whole entry): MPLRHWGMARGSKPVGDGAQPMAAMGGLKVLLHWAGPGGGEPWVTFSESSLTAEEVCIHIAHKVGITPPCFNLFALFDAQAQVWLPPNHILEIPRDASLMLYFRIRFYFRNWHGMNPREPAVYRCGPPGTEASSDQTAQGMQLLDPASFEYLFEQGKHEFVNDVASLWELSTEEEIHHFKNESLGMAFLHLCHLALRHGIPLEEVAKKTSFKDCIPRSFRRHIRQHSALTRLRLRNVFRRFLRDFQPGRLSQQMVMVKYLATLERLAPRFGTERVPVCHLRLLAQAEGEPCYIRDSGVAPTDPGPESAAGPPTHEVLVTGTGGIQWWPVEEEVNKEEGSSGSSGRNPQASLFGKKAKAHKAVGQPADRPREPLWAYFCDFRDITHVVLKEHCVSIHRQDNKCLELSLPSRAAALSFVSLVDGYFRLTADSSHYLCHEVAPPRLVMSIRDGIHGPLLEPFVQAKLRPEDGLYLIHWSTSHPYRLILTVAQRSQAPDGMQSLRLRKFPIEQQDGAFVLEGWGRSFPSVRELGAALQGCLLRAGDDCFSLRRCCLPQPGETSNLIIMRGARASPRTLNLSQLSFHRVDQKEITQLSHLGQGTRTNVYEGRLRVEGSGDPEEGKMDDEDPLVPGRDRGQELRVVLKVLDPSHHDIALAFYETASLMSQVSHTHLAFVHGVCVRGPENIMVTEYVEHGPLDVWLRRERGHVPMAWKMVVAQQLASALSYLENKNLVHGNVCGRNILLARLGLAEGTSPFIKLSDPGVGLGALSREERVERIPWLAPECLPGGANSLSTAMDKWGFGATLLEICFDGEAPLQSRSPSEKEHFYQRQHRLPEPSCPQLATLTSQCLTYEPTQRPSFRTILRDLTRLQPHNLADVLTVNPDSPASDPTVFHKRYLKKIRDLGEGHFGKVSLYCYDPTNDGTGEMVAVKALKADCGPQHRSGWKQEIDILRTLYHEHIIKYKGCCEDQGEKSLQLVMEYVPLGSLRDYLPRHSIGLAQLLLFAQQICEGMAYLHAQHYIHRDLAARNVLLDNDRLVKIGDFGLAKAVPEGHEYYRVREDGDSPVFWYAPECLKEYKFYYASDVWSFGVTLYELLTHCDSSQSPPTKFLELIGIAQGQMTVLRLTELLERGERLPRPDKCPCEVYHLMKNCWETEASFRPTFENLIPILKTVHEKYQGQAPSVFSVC
In assay [6] the target is Serine/threonine-protein kinase pim-1 (Homo sapiens) (UniProt P11309). The experiment in a line: Inhibition of human PIM1 at 18.6 nM by HotSpot assay relative to control.
Assay [7] has as its target Casein kinase I isoform alpha (Homo sapiens) (UniProt P48729). The assay is described as follows: Inhibition of human CK1a1 at 1.82 nM by HotSpot assay relative to control.
Assay [8] addresses Calcium/calmodulin-dependent protein kinase type 1B (Homo sapiens) (UniProt Q6P2M8). The assay is described as follows: Inhibition of human CAMK1b at 1.82 nM by HotSpot assay relative to control.
Assay [9] addresses T1, Dual specificity tyrosine-phosphorylation-regulated kinase 3 (Homo sapiens) (UniProt O43781).
T1 sequence (whole entry): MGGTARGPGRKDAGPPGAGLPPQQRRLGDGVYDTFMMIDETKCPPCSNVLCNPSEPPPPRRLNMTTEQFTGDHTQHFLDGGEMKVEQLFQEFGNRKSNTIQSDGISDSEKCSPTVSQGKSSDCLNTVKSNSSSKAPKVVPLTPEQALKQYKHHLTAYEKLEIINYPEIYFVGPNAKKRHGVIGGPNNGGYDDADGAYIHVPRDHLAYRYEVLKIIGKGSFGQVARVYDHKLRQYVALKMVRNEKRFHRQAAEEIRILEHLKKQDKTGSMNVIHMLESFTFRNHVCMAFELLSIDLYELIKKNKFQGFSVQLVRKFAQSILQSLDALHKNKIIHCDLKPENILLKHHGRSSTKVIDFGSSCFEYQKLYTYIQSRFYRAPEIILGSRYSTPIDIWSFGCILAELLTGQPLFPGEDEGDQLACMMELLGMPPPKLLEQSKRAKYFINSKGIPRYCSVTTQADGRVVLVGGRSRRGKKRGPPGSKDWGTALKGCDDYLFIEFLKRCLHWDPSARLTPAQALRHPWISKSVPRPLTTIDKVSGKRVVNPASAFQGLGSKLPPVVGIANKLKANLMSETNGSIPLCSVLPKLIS
The assay is described as follows: Inhibition of human DYRK3 at 1.82 nM by HotSpot assay relative to control.

Assay [10] concerns the target RAC-alpha serine/threonine-protein kinase (Homo sapiens) (UniProt P31749). The assay is described as follows: Inhibition of human AKT1 at 1.82 nM by HotSpot assay relative to control.
The target in assay [11] is Casein kinase I isoform gamma-3 (Homo sapiens) (UniProt Q9Y6M4). The experiment in a line: Inhibition of human CK1g3 at 1.82 nM by HotSpot assay relative to control.
Chain of Casein kinase I isoform gamma-3 (Homo sapiens) (Q9Y6M4 whole entry, looked up, canonical isoform): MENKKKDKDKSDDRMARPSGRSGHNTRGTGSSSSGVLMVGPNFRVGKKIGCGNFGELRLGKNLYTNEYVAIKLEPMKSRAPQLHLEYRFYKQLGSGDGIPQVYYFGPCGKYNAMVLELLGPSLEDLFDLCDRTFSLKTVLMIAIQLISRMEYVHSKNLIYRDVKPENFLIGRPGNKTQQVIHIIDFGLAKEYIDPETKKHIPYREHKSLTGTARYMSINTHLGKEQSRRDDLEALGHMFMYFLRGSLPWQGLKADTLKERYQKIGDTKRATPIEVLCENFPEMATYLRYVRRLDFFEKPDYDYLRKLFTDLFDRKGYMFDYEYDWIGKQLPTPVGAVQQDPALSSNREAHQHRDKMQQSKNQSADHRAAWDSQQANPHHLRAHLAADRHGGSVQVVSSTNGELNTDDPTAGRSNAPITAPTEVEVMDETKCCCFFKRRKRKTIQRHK
Assay [12] has as its target T2, Serine/threonine-protein kinase D1 (Homo sapiens) (UniProt Q15139).
T2 sequence (whole entry): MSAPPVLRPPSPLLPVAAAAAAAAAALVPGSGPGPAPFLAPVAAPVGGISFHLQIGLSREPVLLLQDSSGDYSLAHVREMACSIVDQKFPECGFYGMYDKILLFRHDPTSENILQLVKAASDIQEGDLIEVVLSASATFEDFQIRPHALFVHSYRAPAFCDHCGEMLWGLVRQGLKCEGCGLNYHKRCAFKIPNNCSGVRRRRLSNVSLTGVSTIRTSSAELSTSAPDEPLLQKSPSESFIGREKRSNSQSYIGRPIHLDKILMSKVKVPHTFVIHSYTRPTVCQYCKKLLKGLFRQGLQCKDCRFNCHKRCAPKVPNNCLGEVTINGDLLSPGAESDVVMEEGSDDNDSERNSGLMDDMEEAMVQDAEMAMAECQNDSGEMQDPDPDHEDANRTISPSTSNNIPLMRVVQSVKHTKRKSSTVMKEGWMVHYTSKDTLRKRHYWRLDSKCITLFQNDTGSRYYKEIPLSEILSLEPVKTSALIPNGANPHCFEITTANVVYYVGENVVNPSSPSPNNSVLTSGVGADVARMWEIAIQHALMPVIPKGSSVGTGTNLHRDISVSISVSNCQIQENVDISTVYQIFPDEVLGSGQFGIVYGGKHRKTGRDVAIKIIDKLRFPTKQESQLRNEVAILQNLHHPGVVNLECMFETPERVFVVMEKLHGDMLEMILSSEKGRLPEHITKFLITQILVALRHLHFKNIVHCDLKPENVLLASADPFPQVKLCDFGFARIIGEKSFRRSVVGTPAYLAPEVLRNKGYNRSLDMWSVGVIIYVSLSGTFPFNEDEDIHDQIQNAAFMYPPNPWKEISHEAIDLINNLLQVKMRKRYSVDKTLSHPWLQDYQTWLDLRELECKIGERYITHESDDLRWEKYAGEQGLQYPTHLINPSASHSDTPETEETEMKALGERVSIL
The experiment in a line: Inhibition of human PRKD1 at 1.82 nM by HotSpot assay relative to control.

Data on three compounds can be found in ChEMBL document CHEMBL5653615 (J Biol Chem, 2013).

Calls of active or inactive are those of the source. No cut-off for these calls is given here.

Chain of Casein kinase I isoform alpha (Homo sapiens) (P48729 2-337 limits assumed): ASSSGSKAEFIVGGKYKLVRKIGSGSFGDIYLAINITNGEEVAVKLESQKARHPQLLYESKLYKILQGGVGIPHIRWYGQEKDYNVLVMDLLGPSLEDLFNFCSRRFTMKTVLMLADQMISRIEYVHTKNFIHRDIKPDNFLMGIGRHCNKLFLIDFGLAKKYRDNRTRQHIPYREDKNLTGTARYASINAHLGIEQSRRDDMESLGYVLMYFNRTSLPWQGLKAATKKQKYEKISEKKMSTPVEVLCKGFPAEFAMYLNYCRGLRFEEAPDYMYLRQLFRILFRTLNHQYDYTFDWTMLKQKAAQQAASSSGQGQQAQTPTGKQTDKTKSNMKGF
Chain of RAC-alpha serine/threonine-protein kinase (Homo sapiens) (P31749 whole entry, canonical isoform): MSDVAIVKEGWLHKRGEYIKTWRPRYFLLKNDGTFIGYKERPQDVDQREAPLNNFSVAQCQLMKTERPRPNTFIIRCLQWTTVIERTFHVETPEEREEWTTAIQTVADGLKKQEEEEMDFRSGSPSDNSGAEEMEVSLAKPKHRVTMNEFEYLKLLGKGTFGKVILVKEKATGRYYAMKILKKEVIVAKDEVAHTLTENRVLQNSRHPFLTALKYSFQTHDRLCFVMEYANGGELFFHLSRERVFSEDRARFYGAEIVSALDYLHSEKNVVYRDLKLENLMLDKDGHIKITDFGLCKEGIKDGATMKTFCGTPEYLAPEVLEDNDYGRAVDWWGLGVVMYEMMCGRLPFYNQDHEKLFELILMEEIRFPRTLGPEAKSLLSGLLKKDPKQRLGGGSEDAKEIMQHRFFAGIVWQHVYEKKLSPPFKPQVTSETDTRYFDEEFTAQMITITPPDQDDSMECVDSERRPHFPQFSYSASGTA
Chain of Focal adhesion kinase 1 (Homo sapiens) (Q05397 2-1052 limits assumed): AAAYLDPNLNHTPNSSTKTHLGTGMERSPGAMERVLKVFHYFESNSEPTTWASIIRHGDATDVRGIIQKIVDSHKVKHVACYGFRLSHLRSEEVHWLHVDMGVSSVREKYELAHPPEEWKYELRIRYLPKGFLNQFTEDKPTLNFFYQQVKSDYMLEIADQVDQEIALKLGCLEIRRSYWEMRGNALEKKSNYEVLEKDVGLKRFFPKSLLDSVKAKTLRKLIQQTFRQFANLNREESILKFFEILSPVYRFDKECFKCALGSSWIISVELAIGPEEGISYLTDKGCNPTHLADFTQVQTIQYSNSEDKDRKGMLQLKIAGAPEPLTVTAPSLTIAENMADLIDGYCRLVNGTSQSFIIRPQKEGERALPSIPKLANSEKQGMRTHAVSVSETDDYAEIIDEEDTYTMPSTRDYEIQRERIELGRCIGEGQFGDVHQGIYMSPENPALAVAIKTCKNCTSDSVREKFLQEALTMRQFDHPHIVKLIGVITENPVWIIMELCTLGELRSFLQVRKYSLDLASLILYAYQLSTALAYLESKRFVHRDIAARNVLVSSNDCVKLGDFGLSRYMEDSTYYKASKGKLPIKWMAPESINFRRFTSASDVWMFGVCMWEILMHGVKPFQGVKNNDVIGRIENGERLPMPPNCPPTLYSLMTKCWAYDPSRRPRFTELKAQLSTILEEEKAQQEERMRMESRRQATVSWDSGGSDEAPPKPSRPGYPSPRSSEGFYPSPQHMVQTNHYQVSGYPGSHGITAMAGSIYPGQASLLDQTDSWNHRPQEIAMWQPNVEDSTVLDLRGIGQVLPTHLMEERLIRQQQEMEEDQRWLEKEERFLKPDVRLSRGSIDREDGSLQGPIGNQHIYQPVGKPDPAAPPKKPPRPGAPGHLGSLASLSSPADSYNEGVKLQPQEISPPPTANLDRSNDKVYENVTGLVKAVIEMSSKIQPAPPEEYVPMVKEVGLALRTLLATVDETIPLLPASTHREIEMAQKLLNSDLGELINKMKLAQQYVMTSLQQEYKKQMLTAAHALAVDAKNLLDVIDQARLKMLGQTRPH
Chain of Mitogen-activated protein kinase kinase kinase 7 (Homo sapiens) (O43318 whole entry, looked up): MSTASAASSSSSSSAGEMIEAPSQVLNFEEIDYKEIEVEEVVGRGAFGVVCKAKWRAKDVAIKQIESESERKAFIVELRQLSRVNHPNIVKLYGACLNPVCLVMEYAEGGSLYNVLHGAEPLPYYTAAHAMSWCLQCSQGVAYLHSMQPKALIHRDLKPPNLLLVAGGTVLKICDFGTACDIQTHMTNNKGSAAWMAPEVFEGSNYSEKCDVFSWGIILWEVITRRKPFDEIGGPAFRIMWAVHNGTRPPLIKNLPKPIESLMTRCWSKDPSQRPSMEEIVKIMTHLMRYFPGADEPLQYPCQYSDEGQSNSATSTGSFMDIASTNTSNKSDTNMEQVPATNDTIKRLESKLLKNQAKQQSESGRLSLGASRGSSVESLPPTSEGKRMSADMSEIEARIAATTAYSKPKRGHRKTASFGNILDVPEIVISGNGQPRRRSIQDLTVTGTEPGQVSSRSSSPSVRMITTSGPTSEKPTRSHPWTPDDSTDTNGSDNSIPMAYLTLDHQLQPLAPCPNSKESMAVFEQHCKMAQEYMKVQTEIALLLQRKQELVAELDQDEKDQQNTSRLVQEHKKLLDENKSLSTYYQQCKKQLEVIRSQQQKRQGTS
Chain of Calcium/calmodulin-dependent protein kinase type 1B (Homo sapiens) (Q6P2M8 whole entry): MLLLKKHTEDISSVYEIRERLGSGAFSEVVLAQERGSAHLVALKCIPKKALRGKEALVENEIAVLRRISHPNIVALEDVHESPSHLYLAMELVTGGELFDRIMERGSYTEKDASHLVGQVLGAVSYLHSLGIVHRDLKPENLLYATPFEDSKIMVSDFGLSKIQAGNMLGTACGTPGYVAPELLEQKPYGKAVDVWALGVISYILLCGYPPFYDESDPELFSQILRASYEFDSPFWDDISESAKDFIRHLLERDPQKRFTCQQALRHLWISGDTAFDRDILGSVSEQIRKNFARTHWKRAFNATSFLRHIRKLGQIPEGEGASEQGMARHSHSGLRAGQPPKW

Turning to `Oc1n[nH]c2nnc(-c3c(-c4ccccc4)nn4ccccc34)cc12`, in assay [1], the inhibition entry was “inactive”.
Take `C[C@]1(O)C[C@@H](c2nc(-c3ccc4ccc(-c5ccccc5)nc4c3)c3c(N)nccn32)C1`: the inhibition was 1.98% in [2]; -3.65% in [3]; 1.73% in assay [4]; -4.07% in assay [5]; -3.58% in assay [6].
Take `C[C@@]1(C(=O)Nc2ccc(F)nc2)CCCN1c1nc(Nc2cc(C3CC3)n[nH]2)c2cccn2n1`: the inhibition in [7] is -1.84%; in assay [8], -2.9%; in [9], 8.06%; in assay [10], 1.89%; in assay [11], 0.91%; in assay [12] it was -5.1%.
